Measurements: PubChem BioAssay AID1963864 (Molecular Pharmacology Branch, DTP, NCI, 2024)

Tested on: KRAS PDC multicell spheroid viability
Assay: Anticancer human tumor 521955-158-R6-J3-PDC patient-derived pancreatic carcinoma cell line growth inhibition [KRAS2]
Settings: for viability, T/C: stronger effect = lower value
Source text: Multicellular complex tumor spheroid response to RAS pathway inhibitors in combination with a targeted agents in patient-derived cell lines with oncogenic KRAS variants from multiple cancer types
A high-throughput screen of multi-cell type tumor spheroids was designed to identify active combinations of targeted small molecules and KRAS pathway inhibitors. Complex spheroids include a stromal component modeled by human endothelial cells (HUVEC) and fibroblasts modeled by human mesenchymal stem cells (MSCs). The concentration ranges selected for each drug and investigational agent were based upon clinically achievable concentrations if the clinical Cmax of the agent was known.
Compounds. The drugs and investigational agents: BI-3406 (NSC825286), BAY-293 (NSC824723), batoprotafib (TNO155; NSC825523), sotorasib (AMG 510; NSC818433), MRTX1257 (NSC819558), elimusertib (BAY 1895344; NSC800525), molibresib (GSK525762; NSC774829), temuterkib (LY3214996; NSC803410), venetoclax (NSC766270), alisertib (NSC759677), olaparib (NSC753686), talazoparib (NSC767125), erdafitinib (NSC781556), ipatasertib (NSC767898), cabozantinib (NSC761068), nintedanib (NSC756659), abemaciclib (NSC768073), docetaxel (NSC628503), trametinib (NSC758246), and sapanisertib (NSC764658) were obtained from the National Cancer Institute (NCI) Developmental Therapeutics Program Chemical Repository. The FDA-approved anticancer drug set is available from the Developmental Therapeutics Program. […] The stock solutions were prepared in dimethyl sulfoxide (DMSO, Sigma-Aldrich, St. Louis, MO, cat. D2650) at 800-fold the tested concentration and stored at -70 degrees C prior to their use. All drugs and investigational agents were tested over a range starting from a high concentration at or near the clinical Cmax and decreasing in half-log increments. If the clinical Cmax for an agent had not been determined, the highest concentration tested was 10 microM.
Cell Culture. All cells were maintained in an incubator at 37 degrees C and 5% CO2 with 95% humidity. The PDC lines were cultured according to standard operating procedures established by the NCI PDMR (https://pdmr.cancer.gov/sops/default.htm). Briefly, all PDCs were thawed and cultured in Matrigel-coated flasks prepared with a working solution of 1X Ham's F-12 nutrient mix, without supplementation (Invitrogen, Waltham, MA, cat. 11765054), 100 U/mL penicillin-streptomycin (Invitrogen, cat. 15140122), and 2.5% Matrigel (Corning Inc., Corning, NY, cat. 354248) for the first three passages. All PDCs were cultured in complete DMEM/F-12 media containing advanced DMEM/F-12 (Invitrogen, cat. 12634028), 4.9% defined fetal bovine serum, heat inactivated (HyClone Laboratories Inc., Logan, UT, cat. SH30070.03HI), 389 ng/mL hydrocortisone (Sigma-Aldrich, cat. H4001), 9.7 ng/mL human EGF recombinant protein (Invitrogen, cat. PHG0313), 23.4 microg/mL adenine (Sigma-Aldrich, cat. A2786), 97.3 U/mL penicillin-streptomycin (Invitrogen, cat. 15140122), 1.9 mM L-glutamine (Invitrogen, cat. 25030081), and 9.7 microM Y-27632 dihydrochloride (Tocris Bioscience, Bristol, United Kingdom, cat. 1254). The PDCs were cultured in complete DMEM/F12 media without 9.7 microM Y-27632 dihydrochloride for at least two passages prior to the screen. The established cell line HOP-62 was cultured in RPMI 1640 medium, HEPES (Invitrogen, cat. 22400105) with 10% defined fetal bovine serum (HyClone Laboratories Inc., cat. SH30070.03) and 2 mM L-glutamine (Invitrogen, cat. 25030081). The pooled donor HUVEC were cultured in endothelial cell growth medium 2 (PromoCell, Heidelberg, Germany, cat. C-22011) and the hMSC were cultured in mesenchymal stem cell growth medium 2 (PromoCell, cat. C-28009). For all experiments, HUVEC and hMSC were used at passages </=5, while the malignant cell lines were used at passages </=15. […]

[1] = curve of first compound, second compound 0.1 µM
[2] = curve of first compound, second compound 0.316 µM
[3] = curve of first compound, second compound 1 µM
[4] = curve of first compound, second compound 3.16 µM
[5] = curve of first compound, second compound 10 µM
[6] = second compound 0.1 µM, first compound 0.0316 µM
[7] = second compound 0.1 µM, first compound 0.1 µM
[8] = second compound 0.316 µM, first compound 0.0316 µM
[9] = second compound 0.316 µM, first compound 0.1 µM
[10] = second compound 1 µM, first compound 0.0316 µM
[11] = second compound 1 µM, first compound 0.1 µM
[12] = second compound 3.16 µM, first compound 0.0316 µM
[13] = second compound 3.16 µM, first compound 0.1 µM
[14] = second compound 10 µM, first compound 0.0316 µM
[15] = second compound 10 µM, first compound 0.1 µM
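Also: drug exposure lasted seven days.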
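For viability, T/C in this document: 100% = DMSO vehicle wells and lower means fewer viable cells.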

In the case of `CC1OCC2(CCN(c3cnc(Sc4ccnc(N)c4Cl)c(N)n3)CC2)C1N` (stereo not drawn) + CNCc1ccccc1-c1csc(C(C)Nc2nc(C)nc3cc(OC)c(OC)cc23)c1, the IC50 [1] is reported as over 10000 nM, the IC50 [2] is reported as over 10000 nM and the IC50 [3] is reported as over 10000 nM. It also gave an IC50 [4] of under 31.6 nM, an IC50 [5] of under 31.6 nM and a viability, T/C [6] of 83.1%. The viability, T/C [7] was 73.2%, the viability, T/C (second compound 0.1 µM, first compound 0.316 µM) was 73.5% and the viability, T/C (second compound 0.1 µM, first compound 1 µM) was 81.8%. It also gave a viability, T/C (second compound 0.1 µM, first compound 3.16 µM) of 105%, a viability, T/C (second compound 0.1 µM, first compound 10 µM) of 100% and a viability, T/C [8] of 83.7%. It also gave a viability, T/C [9] of 80.3%, a viability, T/C (second compound 0.316 µM, first compound 0.316 µM) of 70% and a viability, T/C (second compound 0.316 µM, first compound 1 µM) of 72.7%. It also gave a viability, T/C (second compound 0.316 µM, first compound 3.16 µM) of 92.2%, a viability, T/C (second compound 0.316 µM, first compound 10 µM) of 105% and a viability, T/C [10] of 67.3%. The viability, T/C [11] was 67%, the viability, T/C (second compound 1 µM, first compound 0.316 µM) was 66.5% and the viability, T/C (second compound 1 µM, first compound 1 µM) was 72%. For the same compound, the viability, T/C (second compound 1 µM, first compound 3.16 µM) was 90%, the viability, T/C (second compound 1 µM, first compound 10 µM) was 67.3% and the viability, T/C [12] was 0.42%. For the same compound, the viability, T/C [13] was 0.24%, the viability, T/C (second compound 3.16 µM, first compound 0.316 µM) was 0.25% and the viability, T/C (second compound 3.16 µM, first compound 1 µM) was 0.33%. It also gave a viability, T/C (second compound 3.16 µM, first compound 3.16 µM) of 1.07%, a viability, T/C (second compound 3.16 µM, first compound 10 µM) of 0.41% and a viability, T/C [14] of 0.23%. For the same compound, the viability, T/C [15] was 0.26%, the viability, T/C (second compound 10 µM, first compound 0.316 µM) was 0.26% and the viability, T/C (second compound 10 µM, first compound 1 µM) was 0.17%. It also gave a viability, T/C (second compound 10 µM, first compound 3.16 µM) of 0.22% and a viability, T/C (second compound 10 µM, first compound 10 µM) of 0.27%.

`C=CC(=O)N1CCN(c2nc(OCC3CCCN3C)nc3c2CCN(c2cccc4cccc(C)c24)C3)CC1CC#N` (stereo not drawn) was tested, and the viability, T/C (compound 0.0316 µM) was 91.1% [middle of 16 runs], the viability, T/C (compound 0.1 µM) was 94.9% [middle of 16 runs] and the IC50 (compound alone, run of 09/02/2021) was 2.01 µM [middle of 5 runs].

With `Cn1ncnc1[C@H]1c2n[nH]c(=O)c3cc(F)cc(c23)N[C@@H]1c1ccc(F)cc1` + CC1OCC2(CCN(c3cnc(Sc4ccnc(N)c4Cl)c(N)n3)CC2)C1N the IC50 [1] was over 100 nM, the IC50 [2] was over 100 nM and the IC50 [3] was over 100 nM. The IC50 [4] was over 100 nM, the IC50 [5] was over 100 nM and the viability, T/C (second compound 0.1 µM, first compound 0.000316 µM) was 86.7%. For the same compound, the viability, T/C (second compound 0.1 µM, first compound 0.001 µM) was 91%, the viability, T/C (second compound 0.1 µM, first compound 0.00316 µM) was 78.5% and the viability, T/C (second compound 0.1 µM, first compound 0.01 µM) was 83.2%. It also gave a viability, T/C [6] of 79.5%, a viability, T/C [7] of 77.2% and a viability, T/C (second compound 0.316 µM, first compound 0.000316 µM) of 93.3%. For the same compound, the viability, T/C (second compound 0.316 µM, first compound 0.001 µM) was 76.7%, the viability, T/C (second compound 0.316 µM, first compound 0.00316 µM) was 81.5% and the viability, T/C (second compound 0.316 µM, first compound 0.01 µM) was 80.2%. For the same compound, the viability, T/C [8] was 79.2%, the viability, T/C [9] was 78.2% and the viability, T/C (second compound 1 µM, first compound 0.000316 µM) was 83.6%. The viability, T/C (second compound 1 µM, first compound 0.001 µM) was 82%, the viability, T/C (second compound 1 µM, first compound 0.00316 µM) was 79% and the viability, T/C (second compound 1 µM, first compound 0.01 µM) was 78%. For the same compound, the viability, T/C [10] was 82.9%, the viability, T/C [11] was 86.4% and the viability, T/C (second compound 3.16 µM, first compound 0.000316 µM) was 99.8%. The viability, T/C (second compound 3.16 µM, first compound 0.001 µM) was 95.6%, the viability, T/C (second compound 3.16 µM, first compound 0.00316 µM) was 96.3% and the viability, T/C (second compound 3.16 µM, first compound 0.01 µM) was 106%. It also gave a viability, T/C [12] of 96.2%, a viability, T/C [13] of 82% and a viability, T/C (second compound 10 µM, first compound 0.000316 µM) of 105%. It also gave a viability, T/C (second compound 10 µM, first compound 0.001 µM) of 103%, a viability, T/C (second compound 10 µM, first compound 0.00316 µM) of 95% and a viability, T/C (second compound 10 µM, first compound 0.01 µM) of 103%. It also gave a viability, T/C [14] of 100% and a viability, T/C [15] of 97.9%.
